# Values of other authors as cited in patent publication US20210023023A1, “LIPOSOMAL NUTRACEUTICAL COMPOSITIONS AND METHODS OF MAKING THE SAME” (VASAYO, LLC, priority 2019, published 2021).
# Details: in studies
compound,measurement,value
"C=C(C)[C@@H]1CCC(C)=C[C@H]1c1c(O)cc(CCCCC)cc1O [CBD, cannabidiol]","anti-inflammatory effects, potency relative to aspirin",several hundred times more potent than aspirin
